Reference: ChEMBL document CHEMBL5500344, “Design, synthesis and biological evaluation of matrine contains benzimidazole derivatives as dual TOPOI and PARP inhibitors for cancer therapy” (Eur J Med Chem, 2024)
Activity calls are given as the source filed them. No cut-off for these calls is given here.

Experiments:
L02 = experiment: Antiproliferative activity against human L02 cells assessed as inhibition of cell growth incubated for 48 hrs by MTT assay; format: functional, cell-based; details: L02, 48 h
A549 = experiment: Antiproliferative activity against human A549 cells assessed as inhibition of cell growth incubated for 48 hrs by MTT assay; format: functional, cell-based; details: A549, 48 h
[1] = target: T1, DNA topoisomerase 1 (Homo sapiens) (UniProt P11387); experiment: Inhibition of human topoisomerase 1 assessed as relaxation of supercoiled pBR322 plasmid DNA at 100 uM incubated for 10 to 15 mins by EtBr staining based agarose gel electrophoresis method; details: time 10-15 min
T1 sequence (whole entry): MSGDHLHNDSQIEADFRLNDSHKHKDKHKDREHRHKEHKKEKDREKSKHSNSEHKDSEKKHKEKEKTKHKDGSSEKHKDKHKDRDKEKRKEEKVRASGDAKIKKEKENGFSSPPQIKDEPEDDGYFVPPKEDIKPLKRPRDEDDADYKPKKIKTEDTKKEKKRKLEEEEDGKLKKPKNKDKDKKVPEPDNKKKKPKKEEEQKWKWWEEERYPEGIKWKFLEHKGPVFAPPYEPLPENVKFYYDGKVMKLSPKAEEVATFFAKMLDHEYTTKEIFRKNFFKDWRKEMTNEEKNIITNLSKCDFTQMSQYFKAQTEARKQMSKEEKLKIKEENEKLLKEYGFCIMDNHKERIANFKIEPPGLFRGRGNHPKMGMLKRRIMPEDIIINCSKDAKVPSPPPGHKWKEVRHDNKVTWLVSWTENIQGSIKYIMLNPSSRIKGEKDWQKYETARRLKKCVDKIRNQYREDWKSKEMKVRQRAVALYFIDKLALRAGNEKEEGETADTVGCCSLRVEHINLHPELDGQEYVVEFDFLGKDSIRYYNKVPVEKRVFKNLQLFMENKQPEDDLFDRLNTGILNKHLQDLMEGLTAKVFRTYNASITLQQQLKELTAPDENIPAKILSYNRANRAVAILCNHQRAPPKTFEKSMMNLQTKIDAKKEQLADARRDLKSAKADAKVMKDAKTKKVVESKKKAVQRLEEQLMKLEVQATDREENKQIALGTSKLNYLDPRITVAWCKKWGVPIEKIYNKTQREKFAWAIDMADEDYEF

HepG2 = experiment: Antiproliferative activity against human HepG2 cells assessed as inhibition of cell growth incubated for 48 hrs by MTT assay; format: functional, cell-based; details: HepG2, 48 h
HeLa = experiment: Antiproliferative activity against human HeLa cells assessed as inhibition of cell growth incubated for 48 hrs by MTT assay; format: functional, cell-based
HGC-27 [2] = experiment: Antiproliferative activity against human HGC-27 cells assessed as inhibition of cell growth incubated for 48 hrs by MTT assay; format: functional, cell-based; details: HGC-27, 48 h, read-out: IC50
[3] = target: Poly [ADP-ribose] polymerase 1 (Homo sapiens, UniProt P09874); experiment: Inhibition of PARP-1 (unknown origin) incubated for 70 mins by HT universal chemiluminescent assay
HGC-27 [4] = experiment: Induction of apoptosis in human HGC-27 cells assessed as viable cells at 5 uM incubated for 24 hrs by annexin V-FITC/PI satining based flow cytometry (reference value: 95.3 %); format: functional; details: read-out: Activity
HGC-27 [5] = experiment: Induction of DNA damage in human HGC-27 cells assessed as upregulation of gamma-H2AX expression incubated for 48 hrs by Western blotting analysis; format: functional, cell-based
[6] = target: T1, DNA topoisomerase 1 (Homo sapiens); experiment: Inhibition of human topoisomerase 1 assessed as relaxation of supercoiled pBR322 plasmid DNA incubated for 10 to 15 mins by EtBr staining based agarose gel electrophoresis method; details: time 10-15 min
HGC-27 [7] = experiment: Antitumor activity against human HGC-27 cells xenografted in BALB/c mouse assessed as tumor growth inhibition at 40 mg/kg,ip administrated every other day for 17 days relative to control; format: functional; details: HGC-27, 408 h, time 17 day, read-out: TGI
HGC-27 [8] = experiment: Induction of apoptosis in human HGC-27 cells assessed as upregulation of cleaved PARP expression incubated for 48 hrs by Western blotting analysis; format: functional, cell-based
HGC-27 [9] = experiment: Inhibition of cell migration in human HGC-27 cells incubated upto 72 hrs by scratch wound healing based microscopic analysis; format: functional
HGC-27 [10] = experiment: Induction of apoptosis in human HGC-27 cells assessed as viable cells at 1.25 uM incubated for 24 hrs by annexin V-FITC/PI satining based flow cytometry (reference value: 95.3 %); format: functional; details: read-out: Activity
HGC-27 [11] = experiment: Induction of apoptosis in human HGC-27 cells assessed as upregulation of cleaved caspase-3 expression incubated for 48 hrs by Western blotting analysis; format: functional, cell-based
HGC-27 [12] = experiment: Induction of apoptosis in human HGC-27 cells assessed as viable cells at 2.5 uM incubated for 24 hrs by annexin V-FITC/PI satining based flow cytometry (reference value: 95.3 %); format: functional; details: read-out: Activity
HGC-27 [13] = experiment: Induction of apoptosis in human HGC-27 cells assessed as early apoptotic cells at 5 uM incubated for 24 hrs by annexin V-FITC/PI satining based flow cytometry (reference value: 4.2 %); format: functional
HGC-27 [14] = experiment: Induction of DNA damage in human HGC-27 cells assessed as upregulation of p53 phoshorylation incubated for 48 hrs by Western blotting analysis; format: functional, cell-based
HGC-27 [15] = experiment: Induction of apoptosis in human HGC-27 cells assessed as early apoptotic cells at 2.5 uM incubated for 24 hrs by annexin V-FITC/PI satining based flow cytometry (reference value: 4.2 %); format: functional
HGC-27 [16] = experiment: Induction of apoptosis in human HGC-27 cells assessed as downregulation of PARP expression incubated for 48 hrs by Western blotting analysis; format: functional, cell-based
HGC-27 [17] = experiment: Induction of apoptosis in human HGC-27 cells at 1.25 uM incubated for 24 hrs by annexin V-FITC/PI satining based flow cytometry relative to control; format: functional
HGC-27 [18] = experiment: Induction of apoptosis in human HGC-27 cells assessed as necrotic cells at 2.5 uM incubated for 24 hrs by annexin V-FITC/PI satining based flow cytometry (reference value: 0.13 %); format: functional
HGC-27 [19] = experiment: Induction of DNA damage in human HGC-27 cells assessed as upregulation of p53 expression incubated for 48 hrs by Western blotting analysis; format: functional, cell-based
HGC-27 [20] = experiment: Induction of apoptosis in human HGC-27 cells assessed as late apoptotic cells at 1.25 uM incubated for 24 hrs by annexin V-FITC/PI satining based flow cytometry (reference value: 0.32 %); format: functional
HGC-27 [21] = experiment: Induction of apoptosis in human HGC-27 cells assessed as necrotic cells at 5 uM incubated for 24 hrs by annexin V-FITC/PI satining based flow cytometry (reference value: 0.13 %); format: functional
HGC-27 [22] = experiment: Induction of apoptosis in human HGC-27 cells assessed as downregulation of Bcl-2 expression incubated for 48 hrs by Western blotting analysis; format: functional, cell-based
HGC-27 [23] = experiment: Induction of cell cycle arrest in human HGC-27 cells assessed as accumulation of cells at G0/G1 phase at 2.5 uM incubated for 48 hrs by flow cytometry relative to control; format: functional
[24] = Acute toxicity in BALB/c mouse xenografted with human HGC-27 cells assessed as change in body weight at 40 mg/kg,ip administrated every other day for 17 days; format: organism-based; details: in vivo, 408 h, time 17 day
HGC-27 [25] = experiment: Induction of cell cycle arrest in human HGC-27 cells assessed as accumulation of cells at G0/G1 phase at 1.25 uM incubated for 48 hrs by flow cytometry relative to control; format: functional
HGC-27 [26] = experiment: Induction of apoptosis in human HGC-27 cells at 2.5 uM incubated for 24 hrs by annexin V-FITC/PI satining based flow cytometry relative to control; format: functional
HGC-27 [27] = experiment: Induction of apoptosis in human HGC-27 cells at 5 uM incubated for 24 hrs by annexin V-FITC/PI satining based flow cytometry relative to control; format: functional
HGC-27 [28] = experiment: Induction of cell cycle arrest in human HGC-27 cells assessed as accumulation of cells at G0/G1 phase at 5 uM incubated for 48 hrs by flow cytometry relative to control; format: functional
HGC-27 [29] = experiment: Induction of apoptosis in human HGC-27 cells assessed as late apoptotic cells at 2.5 uM incubated for 24 hrs by annexin V-FITC/PI satining based flow cytometry (reference value: 0.32 %); format: functional
HGC-27 [30] = experiment: Induction of apoptosis in human HGC-27 cells assessed as upregulation of caspase-3 expression incubated for 48 hrs by Western blotting analysis; format: functional, cell-based
HGC-27 [31] = experiment: Induction of apoptosis in human HGC-27 cells assessed as early apoptotic cells at 1.25 uM incubated for 24 hrs by annexin V-FITC/PI satining based flow cytometry (reference value: 4.2 %); format: functional
HGC-27 [32] = experiment: Induction of apoptosis in human HGC-27 cells assessed as upregulation of Bax expression incubated for 48 hrs by Western blotting analysis; format: functional, cell-based
HGC-27 [33] = experiment: Induction of apoptosis in human HGC-27 cells assessed as necrotic cells at 1.25 uM incubated for 24 hrs by annexin V-FITC/PI satining based flow cytometry (reference value: 0.13 %); format: functional
HGC-27 [34] = experiment: Induction of apoptosis in human HGC-27 cells assessed as late apoptotic cells at 5 uM incubated for 24 hrs by annexin V-FITC/PI satining based flow cytometry (reference value: 0.32 %); format: functional
HGC-27 [35] = experiment: Inhibition of colony formation in human HGC-27 cells incubated for 48 hrs by crystal violet staining based microscopic analysis; format: functional, cell-based

Chain of Poly [ADP-ribose] polymerase 1 (P09874 whole entry): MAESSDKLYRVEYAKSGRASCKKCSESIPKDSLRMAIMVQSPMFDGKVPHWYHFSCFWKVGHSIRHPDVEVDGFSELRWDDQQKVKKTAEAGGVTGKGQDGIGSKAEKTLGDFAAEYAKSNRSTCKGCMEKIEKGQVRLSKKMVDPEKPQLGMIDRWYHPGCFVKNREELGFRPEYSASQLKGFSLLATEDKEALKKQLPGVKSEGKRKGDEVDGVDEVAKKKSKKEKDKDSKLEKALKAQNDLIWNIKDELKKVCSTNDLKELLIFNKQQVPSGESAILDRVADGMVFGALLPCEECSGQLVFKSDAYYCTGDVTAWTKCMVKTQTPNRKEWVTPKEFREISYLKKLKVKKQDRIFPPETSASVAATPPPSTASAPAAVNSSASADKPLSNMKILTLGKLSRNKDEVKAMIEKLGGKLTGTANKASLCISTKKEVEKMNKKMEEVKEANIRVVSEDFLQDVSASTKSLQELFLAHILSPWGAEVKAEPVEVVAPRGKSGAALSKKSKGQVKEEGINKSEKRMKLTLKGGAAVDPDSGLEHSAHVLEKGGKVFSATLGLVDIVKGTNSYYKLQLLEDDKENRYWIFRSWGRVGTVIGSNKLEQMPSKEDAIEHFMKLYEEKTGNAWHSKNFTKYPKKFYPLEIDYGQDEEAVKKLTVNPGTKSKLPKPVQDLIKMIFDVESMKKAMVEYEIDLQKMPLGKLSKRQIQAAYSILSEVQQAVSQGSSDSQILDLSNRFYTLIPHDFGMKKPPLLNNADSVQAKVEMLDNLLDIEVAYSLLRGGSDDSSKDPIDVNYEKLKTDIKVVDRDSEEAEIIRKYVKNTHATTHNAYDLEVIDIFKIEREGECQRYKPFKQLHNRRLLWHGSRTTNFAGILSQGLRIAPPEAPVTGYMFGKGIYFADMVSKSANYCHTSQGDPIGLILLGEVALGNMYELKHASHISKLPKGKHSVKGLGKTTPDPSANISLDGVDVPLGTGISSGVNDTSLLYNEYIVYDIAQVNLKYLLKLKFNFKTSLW

O=C(CCC[C@@H]1[C@H]2CCCN3CCC[C@@H](CN1C(=O)OCC1c4ccccc4-c4ccccc41)[C@@H]23)NCCCc1nc2ccc(F)cc2[nH]1
IC50 (L02): > 64 µM | IC50 (A549): 11.8 µM | inhibition [1]: Active | IC50 (HepG2): 6.69 µM | IC50 (HeLa): 16 µM | IC50 (HGC-27 [2]): 8.12 µM | IC50 [3]: > 16 µM

Cc1ccc(S(=O)(=O)N2C[C@@H]3CCCN4CCC[C@@H]([C@H]34)[C@H]2CCCc2nc3cc(Br)ccc3n2S(=O)(=O)c2ccc(C)cc2)cc1
IC50 (L02): > 64 µM | IC50 (A549): 10.8 µM | inhibition [1]: Active | IC50 (HepG2): 4.92 µM | IC50 (HeLa): 7.45 µM | IC50 (HGC-27 [2]): 6.36 µM | IC50 [3]: 1.41 µM

O=C(OCC1c2ccccc2-c2ccccc21)N1C[C@@H]2CCCN3CCC[C@@H]([C@H]23)[C@H]1CCCc1nc2cc(Br)c(Br)cc2[nH]1
viability at 5 µM (HGC-27 [4]): 18.1% | Activity (HGC-27 [5]): Dose-Dependent Effect | IC50 (L02): > 64 µM | IC50 (A549): 9.48 µM | inhibition [6]: Dose-Dependent Effect | inhibition in vivo at 40 mg/kg (HGC-27 [7]): 75.4% | IC50 (HepG2): 3.8 µM | Activity (HGC-27 [8]): Dose-Dependent Effect | inhibition (HGC-27 [9]): Dose-Dependent Effect | IC50 (HeLa): 7.21 µM | viability at 1.25 µM (HGC-27 [10]): 80.7% | Activity (HGC-27 [11]): Dose-Dependent Effect | viability at 2.5 µM (HGC-27 [12]): 51.7% | Activity (HGC-27 [13]): 72.5% | Activity (HGC-27 [14]): Dose-Dependent Effect | Activity (HGC-27 [15]): 40.6% | Activity (HGC-27 [16]): Dose-Dependent Effect | Activity (HGC-27 [17]): 15.5% | Activity (HGC-27 [18]): 0.6% | Activity (HGC-27 [19]): Dose-Dependent Effect | Activity (HGC-27 [20]): 1.79% | Activity (HGC-27 [21]): 1.42% | IC50 (HGC-27 [2]): 2.49 µM | Activity (HGC-27 [22]): Dose-Dependent Effect | Activity (HGC-27 [23]): 70% | Activity [24]: Toxic | Activity (HGC-27 [25]): 66% | Activity (HGC-27 [26]): 43.1% | Activity (HGC-27 [27]): 76% | Activity (HGC-27 [28]): 74% | Activity (HGC-27 [29]): 7% | Activity (HGC-27 [30]): Dose-Dependent Effect | Activity (HGC-27 [31]): 17.2% | Activity (HGC-27 [32]): Dose-Dependent Effect | Activity (HGC-27 [33]): 0.37% | Activity (HGC-27 [34]): 8.01% | inhibition (HGC-27 [35]): Dose-Dependent Effect | IC50 [3]: 0.09 µM
